Assay results published in ChEMBL document CHEMBL1909046, “DrugMatrix in vitro pharmacology data”.

target: T1, Alpha-1B adrenergic receptor (Rattus norvegicus, UniProt P15823); assay: DRUGMATRIX: Alpha-1B adrenergic receptor radioligand binding (ligand: prazosin); format: cell membranes, Wistar, Liver, Membrane; details: Not Active = under 50% inhibition at 10 µM
T1 sequence (P15823 whole entry): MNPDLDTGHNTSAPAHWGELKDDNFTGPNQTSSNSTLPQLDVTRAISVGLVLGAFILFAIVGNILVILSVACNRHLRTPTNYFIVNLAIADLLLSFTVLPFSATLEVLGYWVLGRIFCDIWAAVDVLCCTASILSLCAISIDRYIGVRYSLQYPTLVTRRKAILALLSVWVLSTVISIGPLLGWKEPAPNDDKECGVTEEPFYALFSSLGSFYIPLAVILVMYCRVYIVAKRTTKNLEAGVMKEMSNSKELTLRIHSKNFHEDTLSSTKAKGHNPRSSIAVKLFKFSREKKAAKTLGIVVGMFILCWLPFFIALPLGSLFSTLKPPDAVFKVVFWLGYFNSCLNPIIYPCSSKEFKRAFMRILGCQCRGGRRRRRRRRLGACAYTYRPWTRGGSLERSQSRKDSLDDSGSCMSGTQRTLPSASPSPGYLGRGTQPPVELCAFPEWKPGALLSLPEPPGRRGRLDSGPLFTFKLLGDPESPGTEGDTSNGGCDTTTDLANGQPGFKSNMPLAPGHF

Row | SMILES | IC50
1 | COS(C)(=O)=O [METHANESULFONIC ACID METHYL ESTER] | Not Active
2 | CN1[C@@H]2CC[C@H]1C[C@@H](OC(=O)c1c[nH]c3ccccc13)C2 [TROPISETRON] | Not Active

target: Beta-1 adrenergic receptor (Homo sapiens, UniProt P08588); assay: DRUGMATRIX: Adrenergic beta1 radioligand binding (ligand: [125I] Cyanopindolol); format: cell membranes, CHO-K1, Membrane; details: cho-k1; Not Active = under 50% inhibition at 10 µM
Sequence (P08588 whole entry): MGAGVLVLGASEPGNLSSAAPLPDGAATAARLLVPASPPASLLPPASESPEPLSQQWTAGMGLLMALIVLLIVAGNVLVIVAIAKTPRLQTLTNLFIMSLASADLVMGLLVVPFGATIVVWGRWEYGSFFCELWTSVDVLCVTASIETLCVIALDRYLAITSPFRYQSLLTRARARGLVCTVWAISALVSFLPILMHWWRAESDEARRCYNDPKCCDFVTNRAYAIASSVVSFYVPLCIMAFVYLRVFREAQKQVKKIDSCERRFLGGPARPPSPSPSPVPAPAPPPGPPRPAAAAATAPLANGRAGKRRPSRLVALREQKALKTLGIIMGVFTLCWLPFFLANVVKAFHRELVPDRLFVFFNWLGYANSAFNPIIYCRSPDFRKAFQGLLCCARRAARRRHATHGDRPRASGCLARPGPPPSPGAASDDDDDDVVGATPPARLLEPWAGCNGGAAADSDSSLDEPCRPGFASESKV

Row | SMILES | IC50
3 | COS(C)(=O)=O [METHANESULFONIC ACID METHYL ESTER] | Not Active
4 | CN1[C@@H]2CC[C@H]1C[C@@H](OC(=O)c1c[nH]c3ccccc13)C2 [TROPISETRON] | Not Active

system: not listed separately; assay: DRUGMATRIX: ATPase, Na+/K+ enzyme inhibition (substrate: ATP); format: tissue-based, Sus scrofa, Heart; details: Not Active = under 50% inhibition at 10 µM

Row | SMILES | IC50 | Ki
5 | COS(C)(=O)=O [METHANESULFONIC ACID METHYL ESTER] | Not Active | Not Active
6 | CN1[C@@H]2CC[C@H]1C[C@@H](OC(=O)c1c[nH]c3ccccc13)C2 [TROPISETRON] | Not Active | Not Active

system: not listed separately; assay: DRUGMATRIX: Calcium Channel Type L, Benzothiazepine radioligand binding (ligand: [3H] Diltiazem); format: cell membranes, Rattus norvegicus, Wistar, Brain, Membrane; details: Not Active = under 50% inhibition at 10 µM

Row | SMILES | IC50 | Ki
7 | COS(C)(=O)=O [METHANESULFONIC ACID METHYL ESTER] | Not Active | Not Active
8 | CN1[C@@H]2CC[C@H]1C[C@@H](OC(=O)c1c[nH]c3ccccc13)C2 [TROPISETRON] | Not Active | Not Active

target: T2, 5-hydroxytryptamine receptor 2C (Homo sapiens, UniProt P28335); assay: DRUGMATRIX: Serotonin (5-Hydroxytryptamine) 5-HT2C radioligand binding (ligand: [3H] Mesulergine); format: cell membranes, CHO-K1, Membrane; details: cho-k1; Not Active = under 50% inhibition at 10 µM
T2 sequence (P28335 whole entry): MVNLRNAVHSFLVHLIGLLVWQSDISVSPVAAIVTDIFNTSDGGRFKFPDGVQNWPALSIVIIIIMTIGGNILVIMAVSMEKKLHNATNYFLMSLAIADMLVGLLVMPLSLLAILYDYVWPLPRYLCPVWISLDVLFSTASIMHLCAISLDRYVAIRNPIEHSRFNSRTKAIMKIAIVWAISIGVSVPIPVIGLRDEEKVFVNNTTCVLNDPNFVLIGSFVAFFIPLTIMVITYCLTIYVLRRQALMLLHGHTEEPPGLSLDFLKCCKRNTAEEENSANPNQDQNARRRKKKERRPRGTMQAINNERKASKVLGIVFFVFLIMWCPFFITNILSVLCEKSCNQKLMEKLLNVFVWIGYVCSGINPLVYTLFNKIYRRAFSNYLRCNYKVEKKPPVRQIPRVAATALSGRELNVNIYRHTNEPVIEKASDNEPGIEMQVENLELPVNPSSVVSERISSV

Row | SMILES | IC50
9 | COS(C)(=O)=O [METHANESULFONIC ACID METHYL ESTER] | Not Active
10 | CN1[C@@H]2CC[C@H]1C[C@@H](OC(=O)c1c[nH]c3ccccc13)C2 [TROPISETRON] | Not Active

system: not listed separately; assay: DRUGMATRIX: Serotonin (5-Hydroxytryptamine) 5-HT3 radioligand binding (ligand: [3H] GR-65630); format: cell membranes, Membrane; details: hek293; Not Active = under 50% inhibition at 10 µM

Row | SMILES | IC50 | Ki
11 | COS(C)(=O)=O [METHANESULFONIC ACID METHYL ESTER] | Not Active | Not Active

same assay, conditions: hek293; Not Active = under 50% inhibition at 10 µM; read-out: IC50

Row | SMILES | IC50 [nM]
12 | CN1[C@@H]2CC[C@H]1C[C@@H](OC(=O)c1c[nH]c3ccccc13)C2 [TROPISETRON] | 6.76

same assay, conditions: hek293; Not Active = under 50% inhibition at 10 µM; read-out: Ki

Row | SMILES | Ki [nM]
13 | CN1[C@@H]2CC[C@H]1C[C@@H](OC(=O)c1c[nH]c3ccccc13)C2 [TROPISETRON] | 1.52

target: 5-hydroxytryptamine receptor 6 (Homo sapiens, UniProt P50406); format: cell membranes, HeLa, Membrane; details: hela; note: in other assays of this panel Not Active means under 50% inhibition at 10 µM
Sequence (P50406 whole entry): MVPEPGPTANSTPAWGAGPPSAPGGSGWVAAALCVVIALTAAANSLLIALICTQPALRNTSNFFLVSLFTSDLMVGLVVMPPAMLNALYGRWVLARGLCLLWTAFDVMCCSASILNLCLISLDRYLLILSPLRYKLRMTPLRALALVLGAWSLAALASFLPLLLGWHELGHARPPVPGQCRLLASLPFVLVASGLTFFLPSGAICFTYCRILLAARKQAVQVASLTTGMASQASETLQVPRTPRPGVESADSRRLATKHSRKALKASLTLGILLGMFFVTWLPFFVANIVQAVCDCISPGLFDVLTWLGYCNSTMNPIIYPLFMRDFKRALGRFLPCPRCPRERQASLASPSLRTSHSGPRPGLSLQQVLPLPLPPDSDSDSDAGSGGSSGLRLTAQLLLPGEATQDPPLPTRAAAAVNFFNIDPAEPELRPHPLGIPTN

Row | SMILES | IC50
14 | COS(C)(=O)=O [METHANESULFONIC ACID METHYL ESTER] | Not Active
15 | CN1[C@@H]2CC[C@H]1C[C@@H](OC(=O)c1c[nH]c3ccccc13)C2 [TROPISETRON] | Not Active

target: Sigma non-opioid intracellular receptor 1 (Homo sapiens, UniProt Q99720); assay: DRUGMATRIX: Sigma1 radioligand binding (ligand: [3H] Haloperidol); format: cell membranes, Jurkat, Membrane; details: jurkat; Not Active = under 50% inhibition at 10 µM
Sequence (Q99720 whole entry): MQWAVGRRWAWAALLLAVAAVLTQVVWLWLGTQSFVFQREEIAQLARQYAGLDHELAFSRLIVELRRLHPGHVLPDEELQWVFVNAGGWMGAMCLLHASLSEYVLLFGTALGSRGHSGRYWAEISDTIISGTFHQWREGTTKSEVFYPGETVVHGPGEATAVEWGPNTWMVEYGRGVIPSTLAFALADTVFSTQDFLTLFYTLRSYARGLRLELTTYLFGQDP

Row | SMILES | IC50
16 | COS(C)(=O)=O [METHANESULFONIC ACID METHYL ESTER] | Not Active
17 | CN1[C@@H]2CC[C@H]1C[C@@H](OC(=O)c1c[nH]c3ccccc13)C2 [TROPISETRON] | Not Active

system: not listed separately; assay: DRUGMATRIX: Calcium Channel Type L, Phenylalkylamine radioligand binding (ligand: [3H] (-)-Desmethoxyverapamil (D-888)); format: cell membranes, Rattus norvegicus, Wistar, Brain, Membrane; details: Not Active = under 50% inhibition at 10 µM

Row | SMILES | IC50 | Ki
18 | COS(C)(=O)=O [METHANESULFONIC ACID METHYL ESTER] | Not Active | Not Active
19 | CN1[C@@H]2CC[C@H]1C[C@@H](OC(=O)c1c[nH]c3ccccc13)C2 [TROPISETRON] | Not Active | Not Active

target: T3, Endothelin-1 receptor (Homo sapiens, UniProt P25101); format: cell membranes, Membrane; details: cho-k1; note: in other assays of this panel Not Active means under 50% inhibition at 10 µM
T3 sequence (P25101 whole entry): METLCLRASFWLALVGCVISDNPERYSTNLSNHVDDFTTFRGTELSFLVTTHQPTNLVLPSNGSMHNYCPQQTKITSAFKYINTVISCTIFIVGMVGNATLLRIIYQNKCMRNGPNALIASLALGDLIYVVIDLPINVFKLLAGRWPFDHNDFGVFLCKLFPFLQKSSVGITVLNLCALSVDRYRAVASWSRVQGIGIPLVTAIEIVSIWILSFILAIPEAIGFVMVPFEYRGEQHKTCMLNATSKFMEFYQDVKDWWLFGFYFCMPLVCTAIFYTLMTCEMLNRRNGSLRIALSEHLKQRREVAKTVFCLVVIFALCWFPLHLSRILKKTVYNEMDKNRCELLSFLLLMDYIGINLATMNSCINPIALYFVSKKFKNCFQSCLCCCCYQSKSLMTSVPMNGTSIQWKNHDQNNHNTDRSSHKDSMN

Row | SMILES | IC50
20 | COS(C)(=O)=O [METHANESULFONIC ACID METHYL ESTER] | Not Active
21 | CN1[C@@H]2CC[C@H]1C[C@@H](OC(=O)c1c[nH]c3ccccc13)C2 [TROPISETRON] | Not Active

system: not listed separately; assay: DRUGMATRIX: GABAA, Muscimol, Central radioligand binding (ligand: [3H] Muscimol); format: cell membranes, Rattus norvegicus, Wistar, Brain, Membrane; details: Not Active = under 50% inhibition at 10 µM

Row | SMILES | IC50 | Ki
22 | COS(C)(=O)=O [METHANESULFONIC ACID METHYL ESTER] | Not Active | Not Active

same assay, conditions: Not Active = under 50% inhibition at 10 µM; read-out: IC50

Row | SMILES | IC50 [nM]
23 | CN1[C@@H]2CC[C@H]1C[C@@H](OC(=O)c1c[nH]c3ccccc13)C2 [TROPISETRON] | 3020

same assay, conditions: Not Active = under 50% inhibition at 10 µM; read-out: Ki

Row | SMILES | Ki [nM]
24 | CN1[C@@H]2CC[C@H]1C[C@@H](OC(=O)c1c[nH]c3ccccc13)C2 [TROPISETRON] | 2400

system: not listed separately; assay: DRUGMATRIX: Glutamate, Kainate radioligand binding (ligand: [3H] Kainic acid); format: cell membranes, Rattus norvegicus, Wistar, Brain, Membrane; details: Not Active = under 50% inhibition at 10 µM

Row | SMILES | IC50 | Ki
25 | COS(C)(=O)=O [METHANESULFONIC ACID METHYL ESTER] | Not Active | Not Active
26 | CN1[C@@H]2CC[C@H]1C[C@@H](OC(=O)c1c[nH]c3ccccc13)C2 [TROPISETRON] | Not Active | Not Active

target: Melanocortin receptor 4 (Homo sapiens, UniProt P32245); format: cell membranes, Membrane; details: hek293; note: in other assays of this panel Not Active means under 50% inhibition at 10 µM
Sequence (P32245 whole entry): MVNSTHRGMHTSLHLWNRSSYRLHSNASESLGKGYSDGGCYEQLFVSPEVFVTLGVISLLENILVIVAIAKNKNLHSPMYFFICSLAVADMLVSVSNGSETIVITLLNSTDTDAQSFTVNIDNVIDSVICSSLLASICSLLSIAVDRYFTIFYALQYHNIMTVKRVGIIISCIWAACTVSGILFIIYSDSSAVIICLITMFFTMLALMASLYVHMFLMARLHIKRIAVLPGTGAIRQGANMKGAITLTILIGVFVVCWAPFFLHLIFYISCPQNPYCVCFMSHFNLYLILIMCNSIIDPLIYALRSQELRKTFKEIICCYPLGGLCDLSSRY

Row | SMILES | IC50
27 | COS(C)(=O)=O [METHANESULFONIC ACID METHYL ESTER] | Not Active
28 | CN1[C@@H]2CC[C@H]1C[C@@H](OC(=O)c1c[nH]c3ccccc13)C2 [TROPISETRON] | Not Active

target: T4, Neuropeptide Y receptor type 2 (Homo sapiens, UniProt P49146); format: cell membranes, Membrane; details: kan-ts; note: in other assays of this panel Not Active means under 50% inhibition at 10 µM
T4 sequence (P49146 whole entry): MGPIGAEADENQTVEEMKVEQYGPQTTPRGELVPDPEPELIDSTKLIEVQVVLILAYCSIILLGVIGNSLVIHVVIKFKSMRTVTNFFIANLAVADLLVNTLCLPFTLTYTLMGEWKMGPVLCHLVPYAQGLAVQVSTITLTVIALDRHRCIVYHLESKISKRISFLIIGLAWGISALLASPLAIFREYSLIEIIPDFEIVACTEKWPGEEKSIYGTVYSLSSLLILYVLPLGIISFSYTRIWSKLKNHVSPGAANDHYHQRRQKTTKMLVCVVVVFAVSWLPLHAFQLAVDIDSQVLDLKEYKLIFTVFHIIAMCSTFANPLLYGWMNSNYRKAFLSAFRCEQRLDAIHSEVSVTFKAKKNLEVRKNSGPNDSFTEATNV

Row | SMILES | IC50
29 | COS(C)(=O)=O [METHANESULFONIC ACID METHYL ESTER] | Not Active
30 | CN1[C@@H]2CC[C@H]1C[C@@H](OC(=O)c1c[nH]c3ccccc13)C2 [TROPISETRON] | Not Active

system: not listed separately; assay: DRUGMATRIX: Nicotinic Acetylcholine radioligand binding (ligand: [125I] Epibatidine); format: cell membranes, Membrane; details: imr-32; Not Active = under 50% inhibition at 10 µM

Row | SMILES | IC50 | Ki
31 | COS(C)(=O)=O [METHANESULFONIC ACID METHYL ESTER] | Not Active | Not Active
32 | CN1[C@@H]2CC[C@H]1C[C@@H](OC(=O)c1c[nH]c3ccccc13)C2 [TROPISETRON] | Not Active | Not Active

target: Kappa-type opioid receptor (Homo sapiens, UniProt P41145); assay: DRUGMATRIX: Opiate kappa (OP2, KOP) radioligand binding (ligand: [3H] Diprenorphine); format: cell membranes, HEK293, Membrane; details: hek293; Not Active = under 50% inhibition at 10 µM
Sequence (P41145 whole entry): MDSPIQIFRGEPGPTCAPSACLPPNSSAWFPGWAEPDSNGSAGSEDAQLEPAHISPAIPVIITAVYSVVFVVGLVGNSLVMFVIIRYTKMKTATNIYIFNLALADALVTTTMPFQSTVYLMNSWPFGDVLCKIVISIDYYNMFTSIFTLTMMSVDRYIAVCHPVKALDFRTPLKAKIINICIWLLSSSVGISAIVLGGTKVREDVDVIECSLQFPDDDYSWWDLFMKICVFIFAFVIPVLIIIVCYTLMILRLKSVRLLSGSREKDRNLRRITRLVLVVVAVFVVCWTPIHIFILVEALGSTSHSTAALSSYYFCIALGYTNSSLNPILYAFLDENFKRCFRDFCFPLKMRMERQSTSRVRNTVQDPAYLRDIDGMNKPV

Row | SMILES | IC50
33 | COS(C)(=O)=O [METHANESULFONIC ACID METHYL ESTER] | Not Active
34 | CN1[C@@H]2CC[C@H]1C[C@@H](OC(=O)c1c[nH]c3ccccc13)C2 [TROPISETRON] | Not Active

target: Mu-type opioid receptor (Homo sapiens, UniProt P35372); assay: DRUGMATRIX: Opiate mu (OP3, MOP) radioligand binding (ligand: [3H] Diprenorphine); format: cell membranes, CHO-K1, Membrane; details: cho-k1; Not Active = under 50% inhibition at 10 µM
Sequence (P35372 whole entry): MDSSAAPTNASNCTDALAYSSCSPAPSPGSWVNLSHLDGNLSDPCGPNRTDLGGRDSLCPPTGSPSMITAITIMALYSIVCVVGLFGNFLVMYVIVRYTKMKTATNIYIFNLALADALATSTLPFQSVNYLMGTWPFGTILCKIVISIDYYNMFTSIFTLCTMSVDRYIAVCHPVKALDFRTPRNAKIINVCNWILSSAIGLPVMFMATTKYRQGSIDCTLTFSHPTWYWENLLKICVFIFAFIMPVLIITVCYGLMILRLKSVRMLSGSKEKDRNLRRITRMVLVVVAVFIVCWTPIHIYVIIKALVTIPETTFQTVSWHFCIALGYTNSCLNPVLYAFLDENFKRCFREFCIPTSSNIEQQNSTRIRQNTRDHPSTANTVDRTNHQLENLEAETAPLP

Row | SMILES | IC50
35 | COS(C)(=O)=O [METHANESULFONIC ACID METHYL ESTER] | Not Active
36 | CN1[C@@H]2CC[C@H]1C[C@@H](OC(=O)c1c[nH]c3ccccc13)C2 [TROPISETRON] | Not Active
